Earlier results as cited in patent US20210360917A1, “CUTICLE SUPPLEMENT FOR PLANT PRODUCTION” (OREGON STATE UNIVERSITY, priority 2018, published 2021).

Test system: spotted wing Drosophila
Conditions: chemical alternative, source not given

SMILES: CCOC(=O)CC(SP(=S)(OC)OC)C(=O)OCC (stereo not shown) [malathion]
- reduction of egg laying: about 50%
